Results: patent US8592383B2, “Cycloalkyl-fused tetrahydroquinolines as CRTH2 receptor modulators” (Merck Sharp & Dohme Corp., priority 2011, dated 2013)
pKi: −log10 of the molar value. Read-outs that look alike come from different tables or passages of the source.

Target: T1, hCRTH2 (Homo sapiens, UniProt Q9Y5Y4)
T1 sequence (Q9Y5Y4 1-395): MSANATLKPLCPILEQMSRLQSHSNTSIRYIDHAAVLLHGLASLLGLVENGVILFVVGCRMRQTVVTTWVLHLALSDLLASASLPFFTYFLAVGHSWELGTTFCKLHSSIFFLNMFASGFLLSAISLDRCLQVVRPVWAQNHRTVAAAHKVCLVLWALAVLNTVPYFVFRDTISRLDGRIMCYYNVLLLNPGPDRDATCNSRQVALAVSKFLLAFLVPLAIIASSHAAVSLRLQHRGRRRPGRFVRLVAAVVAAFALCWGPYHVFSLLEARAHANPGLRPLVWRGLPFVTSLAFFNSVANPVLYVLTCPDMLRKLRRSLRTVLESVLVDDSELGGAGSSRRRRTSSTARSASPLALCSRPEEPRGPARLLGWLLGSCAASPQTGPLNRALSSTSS
Parameters: expressed in transfected cells; host or cells: HEK (human embryonic kidney) cells expressing hCRTH2
Conditions: Radioligand Binding Assay B
Experimental: The filters were then washed with 4 mL of the same buffer and residual radioligand bound to the filter was determined by liquid scintillation counting following equilibration in 25 μl Ultima Gold F™ (Unifilter) (Packard).

[1] = 0.7 nM [3H]PGD2, HEK-hCRTH2 membranes

SMILES | pKi (Table B, rated A-D) | pKi [1]
CN(C(=O)CCCC(=O)O)C1c2ccccc2N(C(=O)c2ccc(OC(F)(F)F)cc2)C2CCCC12 (racemic) [17o, 5-[[cis,cis-2,3,3a,4,9,9a-hexahydro-4-[4-(trifluoromethoxy)benzoyl]-1H-cyclopenta[b]quinolin-9-yl]methylamino]-5-oxopentanoic acid] | 5.12 to 6.70 | –
O=C(O)CCC(=O)N(C1CC1)C1c2ccccc2N(C(=O)OCc2ccc(Cl)cc2)C2CCCC21 (racemic) [21A, 4-{[cis, cis-4-{[(4-chlorobenzyl)oxy]carbonyl}-2,3,3a,4,9,9a-hexahydro-1H-cyclopenta[b]quinolin-9-yl](cyclopropyl)amino}-4-oxobutanoic acid] | 6.70 to 7.70 | 7.34
O=C(O)CCC(=O)N(C1CC1)C1c2ccccc2N(C(=O)Oc2ccc(F)cc2)C2CCCC21 (racemic) [21B, 4-(cyclopropyl{cis, cis-4-[(4-fluorophenoxy)carbonyl]-2,3,3a,4,9,9a-hexahydro-1H-cyclopenta[b]quinolin-9-yl}amino)-4-oxobutanoic acid] | 5.12 to 6.70 | –
O=C(O)CCC(=O)N(C1CC1)C1c2ccccc2N(C(=O)OCc2ccc3ccccc3c2)C2CCCC21 (racemic) [21C, 4-(cyclopropyl{cis, cis-4-[(naphthalen-2-ylmethoxy)carbonyl]-2,3,3a,4,9,9a-hexahydro-1H-cyclopenta[b]quinolin-9-yl}amino)-4-oxobutanoic acid] | 6.70 to 7.70 | –
O=C(O)CCC(=O)N(C1CC1)C1c2ccccc2N(C(=O)OCc2ccccc2F)C2CCCC21 (racemic) [21D, 4-{cyclopropyl[cis, cis-4-{[(2-fluorobenzyl)oxy]carbonyl}-2,3,3a,4,9,9a-hexahydro-1H-cyclopenta[b]quinolin-9-yl]amino}-4-oxobutanoic acid] | 6.70 to 7.70 | –
COc1ccc(COC(=O)N2c3ccccc3C(N(C(=O)CCC(=O)O)C3CC3)C3CCCC32)cc1 (racemic) [21E, 4-{cyclopropyl[cis, cis-4-{[(4-methoxybenzyl)oxy]carbonyl}-2,3,3a,4,9,9a-hexahydro-1H-cyclopenta[b]quinolin-9-yl]amino}-4-oxobutanoic acid] | 6.70 to 7.70 | –
CC(OC(=O)N1c2ccccc2C(N(C(=O)CCC(=O)O)C2CC2)C2CCCC21)c1ccccc1 (racemic) [21F, 4-(cyclopropyl{cis, cis-4-[(1-phenylethoxy)carbonyl]-2,3,3a,4,9,9a-hexahydro-1H-cyclopenta[b]quinolin-9-yl}amino)-4-oxobutanoic acid] | 6.70 to 7.70 | –
O=C(O)CCC(=O)N(C1CC1)C1c2ccccc2N(C(=O)OCc2ccccn2)C2CCCC21 (racemic) [21G, 4-(cyclopropyl{cis, cis-4-[(pyridin-2-ylmethoxy)carbonyl]-2,3,3a,4,9,9a-hexahydro-1H-cyclopenta[b]quinolin-9-yl}amino)-4-oxobutanoic acid] | 6.70 to 7.70 | –
CC(C)(C)COC(=O)N1c2ccccc2C(N(C(=O)CCC(=O)O)C2CC2)C2CCCC21 (racemic) [21H, 4-(cyclopropyl{cis, cis-4-[(2,2-dimethylpropoxy)carbonyl]-2,3,3a,4,9,9a-hexahydro-1H-cyclopenta[b]quinolin-9-yl}amino)-4-oxobutanoic acid] | 5.12 to 6.70 | –
O=C(O)CCC(=O)N(C1CC1)C1c2ccccc2N(C(=O)OCc2ccncc2)C2CCCC21 (racemic) [21J, 4-(cyclopropyl{cis, cis-4-[(pyridin-4-ylmethoxy)carbonyl]-2,3,3a,4,9,9a-hexahydro-1H-cyclopenta[b]quinolin-9-yl}amino)-4-oxobutanoic acid] | 5.12 to 6.70 | –
O=C(O)CCC(=O)N(C1CC1)C1c2ccccc2N(C(=O)Oc2ccccc2)C2CCCC21 (racemic) [21K, 4-{cyclopropyl[cis, cis-4-(phenoxycarbonyl)-2,3,3a,4,9,9a-hexahydro-1H-cyclopenta[b]quinolin-9-yl]amino}-4-oxobutanoic acid] | 5.12 to 6.70 | 6.04
O=C(O)CCC(=O)N(C1CC1)C1c2ccccc2N(C(=O)OCc2ccc(Cl)c(Cl)c2)C2CCCC21 (racemic) [21L, 4-{cyclopropyl[cis, cis-4-{[(3,4-dichlorobenzyl)oxy]carbonyl}-2,3,3a,4,9,9a-hexahydro-1H-cyclopenta[b]quinolin-9-yl]amino}-4-oxobutanoic acid] | 6.70 to 7.70 | –
O=C(O)CCC(=O)N(C1CC1)C1c2ccccc2N(C(=O)OCC2CC2)C2CCCC21 (racemic) [21i, 4-(cyclopropyl{cis, cis-4-[(cyclopropylmethoxy)carbonyl]-2,3,3a,4,9,9a-hexahydro-1H-cyclopenta[b]quinolin-9-yl}amino)-4-oxobutanoic acid] | 6.70 to 7.70 | –
CC(CC(=O)N(C1CC1)C1c2ccccc2N(C(=O)OCc2ccccc2)C2CCCC21)C(=O)O (racemic) [compound 10, 4-[{cis,cis-4-[(Benzyloxy)carbonyl]-2,3,3a,4,9,9a-hexahydro-1H-cyclopenta[b]quinolin-9-yl}(cyclopropyl)amino]-2-methyl-4-oxobutanoic acid] | 5.12 to 6.70 | 6.29
COC(=O)CCC(=O)N(c1ccccc1)[C@@H]1c2ccccc2N(C(=O)OCc2ccccc2)[C@@H]2CCC[C@@H]21 (racemic) [compound 12, Benzyl cis,cis-9-[(4-methoxy-4-oxobutanoyl)(phenyl)amino]-1,2,3,3a,9,9a-hexahydro-4H-cyclopenta[b]quinoline-4-carboxylate] | 5.12 to 6.70 | –
CCN(C(=O)CCC(=O)O)[C@@H]1c2ccccc2N(C(=O)OCc2ccccc2)[C@@H]2CCC[C@H]12 (racemic) [compound 13, 4-[{cis,cis-4-[(Benzyloxy)carbonyl]-2,3,3a,4,9,9a-hexahydro-1H-cyclopenta[b]quinolin-9-yl}(ethyl)amino]-4-oxobutanoic acid] | 7.70 to 8.29 | –
O=C(O)CCC(=O)N(C1CC1)[C@@H]1c2ccccc2N(C(=O)c2ccccc2)[C@@H]2CCC[C@@H]21 (racemic) [compound 14, 4-[[cis,cis-4-Benzoyl-2,3,3a,4,9,9a-hexahydro-1H-cyclopenta[b]quinolin-9-yl](cyclopropyl)amino]-4-oxobutanoic acid] | 7.70 to 8.29 | –
COC(=O)CCC(=O)N(C1CC1)C1c2ccc(F)cc2N(C(=O)OCc2ccccc2)C2CCCC21 (racemic) [compound 15, Benzyl cis,cis-9-[cyclopropyl(4-methoxy-4-oxobutanoyl)amino]-6-fluoro-1,2,3,3a,9,9a-hexahydro-4H-cyclopenta[b]quinoline-4-carboxylate] | 6.70 to 7.70 | –
O=C(O)CCC(=O)N(C1CC1)[C@@H]1c2ccc(F)cc2N(C(=O)OCc2ccccc2)[C@@H]2CCC[C@@H]21 (racemic) [compound 16, 4-[{cis,cis-4-[(Benzyloxy)carbonyl]-6-fluoro-2,3,3a,4,9,9a-hexahydro-1H-cyclopenta[b]quinolin-9-yl}(cyclopropyl)amino]-4-oxobutanoic acid] | 8.30 to 9.00 | 8.57

The remaining lines, values ahead:

pKi (Table B, rated A-D) | pKi [1] | SMILES
6.70 to 7.70 | – | O=C(O)CCC(=O)N(C1CC1)C1c2ccccc2N(C(=O)n2ccnc2)C2CCCC21 (racemic) [23B, 4-{cyclopropyl[cis, cis-4-(1H-imidazol-1-ylcarbonyl)-2,3,3a,4,9,9a-hexahydro-1H-cyclopenta[b]quinolin-9-yl]amino}-4-oxobutanoic acid]
6.70 to 7.70 | – | O=C(O)CCC(=O)N(C1CC1)C1c2ccccc2N(C(=O)NCc2ccccc2)C2CCCC21 (racemic) [23C, 4-{[cis, cis-4-(benzylcarbamoyl)-2,3,3a,4,9,9a-hexahydro-1H-cyclopenta[b]quinolin-9-yl](cyclopropyl)amino}-4-oxobutanoic acid]
6.70 to 7.70 | – | CN(C(=O)N1c2ccccc2C(N(C(=O)CCC(=O)O)C2CC2)C2CCCC21)c1ccccc1 (racemic) [23D, 4-(cyclopropyl{cis, cis-4-[methyl(phenyl)carbamoyl]-2,3,3a,4,9,9a-hexahydro-1H-cyclopenta[b]quinolin-9-yl}amino)-4-oxobutanoic acid]
6.70 to 7.70 | – | O=C(O)CCC(=O)N(C1CC1)C1c2ccccc2N(S(=O)(=O)c2ccc(OC(F)(F)F)cc2)C2CCCC12 (racemic) [24D, 4-[cyclopropyl[cis,cis-2,3,3a,4,9,9a-hexahydro-4-[[4-(trifluoromethoxy)phenyl]sulfonyl]-1H-cyclopenta[b]quinolin-9-yl]amino]-4-oxobutanoic acid]
6.70 to 7.70 | – | O=C(O)CCC(=O)N(C1CC1)C1c2ccccc2N(c2nnc(-c3ccccc3)o2)C2CCCC21 (racemic) [36A, racemic 4-{cyclopropyl[cis, cis-4-(5-phenyl-1,3,4-oxadiazol-2-yl)-2,3,3a,4,9,9a-hexahydro-1H-cyclopenta[b]quinolin-9-yl]amino}-4-oxobutanoic acid]
6.70 to 7.70 | – | O=C(O)CCC(=O)N(C1CC1)C1c2ccccc2N(c2nnc(-c3ccc(F)cc3)o2)C2CCCC21 (racemic) [36B, racemic 4-(cyclopropyl{cis, cis-4-[5-(4-fluorophenyl)-1,3,4-oxadiazol-2-yl]-2,3,3a,4,9,9a-hexahydro-1H-cyclopenta[b]quinolin-9-yl}amino)-4-oxobutanoic acid]
5.12 to 6.70 | – | O=C(O)CCC(=O)N(C1CC1)C1c2ccccc2N(c2nnc(-c3ccc(OC(F)(F)F)cc3)o2)C2CCCC21 (racemic) [36C, racemic 4-{cyclopropyl[cis, cis-4-{5-[4-trifluoro-(methoxy)phenyl]-1,3,4-oxadiazol-2-yl}-2,3,3a,4,9,9a-hexahydro-1H-cyclopenta[b]quinolin-9-yl]amino}-4-oxobutanoic acid]
